Measurements: patent US20010044445A1, “AZOLE INHIBITORS OF CYTOKINE PRODUCTION” (priority 1999, published 2001)

Key:
IL-2 = test: CD3 and CD28 Activation of Peripheral Blood T Cells and Determination of Secreted IL-2 Levels (C28 HU Assay); format: cell-based, Human; settings: PBMC stimulated with anti-CD3 and anti CD28 mAbs, 24 hour; for inhibition at 1 µM: concentration 1 μM (in c2); for inhibition at 1 µM / inhibition at 100 µM: read-out: % Inhibition of IL-2 secretion (At concentrations of 1, 10, or 100 μM); for IC50: IL-2 secretion; for inhibition at 100 µM: concentration 100 μM (in c2)
Procedure: Human peripheral blood mononuclear cells were cultured in RPMI 1640 medium supplemented with 10 μg/ml gentamicin, 50 μM 2-mercaptoethanol, 1X MEM non-essential amino acids (Sigma Chemical Co., St. Louis, Mo.), 100 U/ml sodium penicillin G, 100 μg/ml streptomycin sulfate, 2 mM L-glutamine, 1 mM sodium pyruvate (Life Technologies, Grand Island, N.Y.) and 10% fetal bovine serum (Hyclone, Logan, Utah) at 37° C. with 5% CO2.
Human peripheral blood mononuclear cells (PBMC) were isolated by Ficoll-Hypaque seperation. PBMCs were stimulated with a combination of immobilized anti-CD3 and soluble anti CD28 mAbs as described in Faltynek, et al. J. Enzyme Inhibition 1995, 9, 111-122, hereby incorporated by reference. Following a 24 hour incubation, cell supernatants were harvested and IL-2 levels were determined. 100 μl of 5 μg/ml monoclonal murine anti-human IL-2 antibody (Biosource International) in D-PBS was added to 96 well Maxisorb plates (Nunc) and incubated at 4° C. overnight. Plates were washed 4 times with D-PBS containing 0.05% Tween 20 (wash buffer) and blocked with D-PBS containing 1% BSA and 10 mM NaN3 (Diluent/Blocking buffer) for 1-3 hours at room temperature or overnight at 4° C. Plates were washed and recombinant human IL-2 diluted (at 10,000, 5,000, 2,500, 1,250, 625, 312.5, 156.25, 78, 39, 20 pg/ml) in diluent/blocking buffer containing a matched percentage of complete RPMI 1640 medium as the unknown samples. Tissue culture supernatant at various dilutions were added in triplicate at 100 μl/well. Plates were incubated for 2 hours at room temperature and washed 4 times with wash buffer. 100 pl of rabbit anti-human IL-2 (10 μg/ml, Genzyme) was added and incubated for 1 hour at room temperature. The incubation was followed by 4 washes and subsequent addition of 100 pl of 1:2000 dilution of alkaline phosphatase-conjugated goat anti-rabbit F(ab′)2 (Biosource International). After 1 hour the plates were washed 4 times and 100 μl of pNPP (Southern Biotech or Sigma) at 1 mg/ml in buffer was added. Color development was allowed to proceed at room temperature for 20 minutes before addition of 50 μl of 2 N NaOH. Absorbance at 405 nm was determined using a plate reader (Molecular Devices). IL-2 concentrations were calcualted using SoftMax (Molecular Devices) based on the IL-2 standard solutions.

[1] = tested on: Human peripheral blood mononuclear cells; test: Human Concanavalin-A Proliferation Assay (Con HU Assay); format: cell-based; settings: Homo sapiens, PBMC, concanavalin-A stimulated human PBMC; for inhibition at 10 µM: 72 h, concentration 10 μm (in parentheses in the cell), 3 days, read-out: % Inhibition of proliferation (at concentrations of 1,10, or 100 μm); for IC50: tritiated thymidine
Method in brief: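 Histopaque-isolated human PBMC (50,000/well) were pre-incubated 15 min with compounds, then stimulated with concanavalin-A at 2.5 μg/ml final for 3 days at 37 °C, 5% CO2. Proliferation measured by 6 h pulse with 0.5 μCi/well [3H]thymidine and beta counting.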

IL-4 = test: Measurement of IL-4 Levels in Human T Cells (IL-4 Assay); format: cell-based; settings: HuT78; Human T cells (HUT 78), phorbol 12-myristate 13-acetate and anti-CD3, 32 hours, ELISA; read-out: IL-4 Inhibition IC50
Procedure: (§1) Measurement of IL-5 and IL-4 Levels in Human T Cells (IL-4 and IL-5 Assays) Human T cells (HUT 78) were cultured to 1×10^6/mL in RPMI 1640 medium containing 10% fetal calf serum, 100 U/mL penicillin and 100 μg/mL streptomycin. Cultures were then centrifuged, to pellet the cells, and cells resuspended in fresh medium to the same density. 0.2 mL samples of cells were incubated in 96-well plates with 8 μL of various concentrations of compound freshly diluted with the above medium from 100 mM solvent stocks (ethanol or DMSO). Immediately after addition of compound, cells were stimulated by addition of 2 ng/mL phorbol 12-myristate 13-acetate (1 μL of freshly prepared solution of stock (in DMSO) diluted with the above medium added to cells) and 750 μg/mL anti-CD3 (pre-coated at 4° C. overnight). Cell cultures were incubated at 37 OC for 32 hours, then cells pelleted by centrifugation and the supernatants harvested for ELISA. IL-4 and IL-5 ELISA's were performed according to standard procedures. Inhibition was calculated relative to cytokine levels produced from control stimulated cells not treated with compound.

IL-5 = test: Measurement of IL-5 Levels in Human T Cells (IL-5 Assay); format: cell-based; settings: HuT78; Human T cells (HUT 78), phorbol 12-myristate 13-acetate and anti-CD3, 32 hours, ELISA; read-out: IL-5 Inhibition IC50
Procedure: as §1

SMILES | inhibition at 1 µM (IL-2; Homo sapiens) [%] | melting point [°C] | further results
Cc1ccnn1-c1ccc(NC(=O)c2ccc(Cl)cc2)cc1 [Example 284, 4-Chloro-N-[4-(5-methyl-1H-pyrazol-1-yl)phenyl]benzamide] | 17 | 189 to 191 | 
Cc1c(Cl)cccc1NC(=O)Nc1ccc(-n2nc(C(F)(F)F)cc2C(F)(F)F)cc1 [Example 38, N-[4-[3,5-bis(trifluoromethyl)-1H-pyrazol-1-yl]phenyl]-N′-(3-chloro-2-methylphenyl)urea] | 16 | 193 to 196 | 
O=C(Nc1ccc(-n2nc(C(F)(F)F)cc2C(F)(F)F)cc1)c1ccco1 [Example 113, N-[4-[3,5-bis(trifluoromethyl)-1H-pyrazol-1-yl]phenyl]-2-furancarboxamide] | 19 | 179 to 182 | 
O=C(Nc1ccccc1)Nc1ccc(-n2nc(C(F)(F)F)cc2C(F)(F)F)cc1 [Example 36, N-[4-[3,5-bis(trifluoromethyl)-1H-pyrazol-1-yl]phenyl]-N′-phenylurea] | 10 | 185 to 187 | 
O=C(Nc1ccc(-n2nc(C(F)(F)F)cc2C(F)(F)F)cc1)c1cnnc2ccccc12 [Example 118, N-[4-[3,5-bis(trifluoromethyl)-1H-pyrazol-1-yl]phenyl]-4-cinnolinecarboxamide] | 27 |  | 
O=C(Nc1ccc(-n2nc(C(F)(F)F)cc2C(F)(F)F)cc1)C1CCc2ccccc2C1 (centres unmarked) [Example 153, N-[4-[3,5-bis(trifluoromethyl)-1H-pyrazol-1-yl]phenyl]-1,2,3,4-tetrahydro-2-naphthalenecarboxamide] |  | 199 to 201 | IC50 (IL-2; Homo sapiens): 457 nM; inhibition at 100 µM (IL-2; Homo sapiens): 94%
O=C(Nc1ccc(-n2nc(C(F)(F)F)cc2C(F)(F)F)cc1)c1ccncc1F [Example 264, N-[4-[3,5-bis(trifluoromethyl)-1H-pyrazol-1-yl]phenyl]-3-fluoro-4-pyridinecarboxamide] |  |  | inhibition at 10 µM [1]: 100%; IC50 [1]: 42 nM; IC50 (IL-4): 4.8 nM; IC50 (IL-5): 22 nM
Cc1nnsc1C(=O)Nc1ccc(-n2nccc2C)cc1 [Example 285, 4-Methyl-N-[4-(5-methyl-1H-pyrazol-1-yl)phenyl]-1,2,3-thiadiazole-5-carboxamide] | 26 | 163 to 164 | 
CC(C)(Oc1ccc(Cl)cc1)C(=O)Nc1ccc(-n2nc(C(F)(F)F)cc2C(F)(F)F)cc1 [Example 155, N-[4-[3,5-bis(trifluoromethyl)-1H-pyrazol-1-yl]phenyl]-2-(4-chlorophenoxy)-2-methylpropanamide] | 8 |  | 
O=C(Nc1ccc(-n2nc(C(F)(F)F)cc2C(F)(F)F)cc1)C12CC3CC(CC(C3)C1)C2 [Example 62] |  |  | IC50 (IL-2): 5040 nM
O=C(Nc1ccc(-n2nc(C(F)(F)F)cc2C(F)(F)F)cc1)c1ccc(Oc2cc(Cl)cc(Cl)c2)o1 [Example 8, N-[4-[3,5-bis(trifluoromethyl)-1H-pyrazol-1-yl]phenyl]-5-(3,5-dichlorophenoxy)-2-furancarboxamide] | 20 | 152 to 153 | 
O=C(Nc1ccc(-n2nc(C(F)(F)F)cc2C(F)(F)F)cc1)c1cccc(F)c1F [Example 209, N-[4-[3,5-bis(trifluoromethyl)-1H-pyrazol-1-yl]phenyl]-2,3-difluorobenzamide] |  | 147 to 149 | inhibition at 10 µM [1]: 99%; IC50 [1]: 33 nM; IC50 (IL-4): 5 nM; IC50 (IL-5): 38 nM
CCCCCCCNC(=O)Nc1ccc(-n2nc(C(F)(F)F)cc2C(F)(F)F)cc1 [Example 47, N-[4-[3,5-bis(trifluoromethyl)-1H-pyrazol-1-yl]phenyl]-N′-heptylurea] | 2 | 129 to 130 | 
O=C(Nc1ccc(-n2nc(C(F)(F)F)cc2C(F)(F)F)cc1)Nc1ccc(C(F)(F)F)cc1 [Example 33, N-[4-[3,5-bis(trifluoromethyl)-1H-pyrazol-1-yl]phenyl]-N′-[4-(trifluoromethyl)phenyl]urea] | 6 |  | 
O=C(CCC(=O)c1ccc(F)cc1)Nc1ccc(-n2nc(C(F)(F)F)cc2C(F)(F)F)cc1 [Example 152, N-[4-[3,5-bis(trifluoromethyl)-1H-pyrazol-1-yl]phenyl]-4-fluoro-γ-oxobenzenebutanamide] | 3 | 156 to 158 | 
CCCCC(CC)C(=O)Nc1ccc(-n2nc(C(F)(F)F)cc2C(F)(F)F)cc1 (centres unmarked) [Example 72, N-[4-[3,5-bis(trifluoromethyl)-1H-pyrazol-1-yl]phenyl]-2-ethylhexanamide] | 11 | 127 to 128 | 
CC(C)(C)OC(=O)NCCCCCCC(=O)Nc1ccc(-n2nc(C(F)(F)F)cc2C(F)(F)F)cc1 [Example 64, 1,1-dimethylethyl [7-[[4-[3,5-bis(trifluoromethyl)-1H-pyrazol-1-yl]phenyl]amino]-7-oxoheptyl]carbamate] |  | 86 to 88 | IC50 (IL-2; Homo sapiens): 22300 nM; inhibition at 100 µM (IL-2; Homo sapiens): 86%
O=C(Nc1ccc(-n2nc(C(F)(F)F)cc2C(F)(F)F)cc1)C1=CCCCC1 [Example 6, N-[4-[3,5-bis(trifluoromethyl)-1H-pyrazol-1-yl]phenyl]-1-cyclohexene-1-carboxamide] |  | 146 to 148 | inhibition at 10 µM [1]: 100%; IC50 [1]: 98 nM; IC50 (IL-4): 8 nM; IC50 (IL-5): 50 nM
C=CC[C@@H]1/C=C(\C)C[C@H](C)C[C@H](OC)[C@H]2O[C@@](O)(C(=O)C(=O)N3CCCC[C@H]3C(=O)O[C@H](/C(C)=C/[C@@H]3CC[C@@H](O)[C@H](OC)C3)[C@H](C)[C@@H](O)CC1=O)[C@H](C)C[C@@H]2OC [FK-506, tacrolimus, reference compound] |  |  | IC50 (IL-4): 0.7 nM; IC50 (IL-5): 0.5 nM
Cc1noc(C)c1C(=O)Nc1ccc(-n2nccc2C)cc1 [Example 286, 3,5-dimethyl-N-[4-(5-methyl-1H-pyrazol-1-yl)phenyl]-4-isoxazolecarboxamide] | 2 | 151 to 152 | 
O=C(Nc1ccc(-n2nc(C(F)(F)F)cc2C(F)(F)F)cc1)c1cccs1 [Example 131, N-[4-[3,5-bis(trifluoromethyl)-1H-pyrazol-1-yl]phenyl]-2-thiophenecarboxamide] | 32 | > 230 | 
O=C(CCC1CCCC1)Nc1ccc(-n2nc(C(F)(F)F)cc2C(F)(F)F)cc1 [Example 99, N-[4-[3,5-bis(trifluoromethyl)-1H-pyrazol-1-yl]phenyl]cyclopentanepropanamide] | 9 | 130 to 132 | 
